# According to ChEMBL document CHEMBL1132938, “Novel synthetic oleanane and ursane triterpenoids with various enone functionalities in ring A as inhibitors of nitric oxide production in mouse macrophages” (J Med Chem, 2000):
# Species on record: Mus musculus
# Test: Percent inhibition of nitric oxide production induced by IFN-uM concentration
# Type: functional
# Parameters: concentration or dose not given beside the values
row,Structure (SMILES),Inhibition [%]
1,CC1(C)CCC2(C(=O)O)CC[C@]3(C)C(=CC[C@@H]4[C@@]5(C)CC[C@@H](Cl)C(C)(C)[C@@H]5CC[C@]43C)C2C1 (stereo partly specified),0
2,CC(=O)OC[C@]12CCC(C)(C)CC1C(O)[C@](C)([C@]1(C)CC[C@H]3C(C)(C)[C@@H](OC(C)=O)CC[C@]3(C)[C@H]1CCO)CC2 (stereo partly specified),12
3,CC(=O)OCC12CCC(C)(C)CC1[C@H]1[C@H](OC(C)=O)C[C@@H]3[C@@]4(C)CC[C@H](OC(C)=O)C(C)(C)[C@@H]4CC[C@@]3(C)[C@]1(C)CC2 (stereo partly specified),0
4,CC1(C)CC[C@]2(C(=O)O)CC[C@@](C)([C@]3(C)CC[C@H]4C(C)(C)C(=O)CC[C@]4(C)[C@H]3CC(=O)O)C(=O)C2C1 (stereo partly specified),28
5,CC(=O)OCC12CCC(C)(C)CC1C1=CC[C@@H]3[C@@]4(C)CC[C@H](OC(C)=O)C(C)(C)[C@@H]4CC[C@@]3(C)[C@]1(C)CC2 (stereo partly specified),4
6,COC(=O)C12CCC(C)(C)CC1C1=CC[C@@H]3[C@@]4(C)CC[C@H](OC(C)=O)C(C)(C)[C@@H]4CC[C@@]3(C)[C@]1(C)CC2 (stereo partly specified),10
7,CC1(C)CCC2(CO)CC[C@]3(C)C(=CC[C@@H]4[C@@]5(C)CC[C@H](O)C(C)(C)[C@@H]5CC[C@]43C)C2C1 (stereo partly specified),0
8,COC(=O)C12CCC(C)(C)CC1C1=CC[C@@H]3[C@@]4(C)CCC(=O)C(C)(C)[C@@H]4CC[C@@]3(C)[C@]1(C)CC2 (stereo partly specified),24
9,CC1(C)CCC2(CO)CC[C@]3(C)[C@@H](C2C1)[C@H](O)C[C@@H]1[C@@]2(C)CC[C@H](O)C(C)(C)[C@@H]2CC[C@]13C (stereo partly specified),20
10,CC1(C)CCC2(CO)CC[C@]3(C)[C@@H](C2C1)[C@@H](O)C[C@@H]1[C@@]2(C)CC[C@H](O)C(C)(C)[C@@H]2CC[C@]13C (stereo partly specified),48
11,C=C(C)[C@@H]1CC[C@]2(C)[C@H](CC=C3C4[C@@H](C)[C@H](C)CC[C@]4(C(=O)O)CC[C@]32C)[C@@]1(C)CCC#N (stereo partly specified),39
12,COC(=O)C12CC[C@@H](C)[C@H](C)C1C1=CC[C@@H]3[C@@]4(C)CCC(=O)C(C)(C)[C@@H]4CC[C@@]3(C)[C@]1(C)CC2 (stereo partly specified),16
13,COC(=O)C12CCC(C)(C)CC1C1=CC[C@@H]3[C@@]4(C)CCC(=O)NC(C)(C)[C@@H]4CC[C@@]3(C)[C@]1(C)CC2 (stereo partly specified),0
14,COC(=O)C12CCC(C)(C)CC1[C@H]1C(=O)C[C@@H]3[C@@]4(C)CCC(=O)C(C)(C)[C@@H]4CC[C@@]3(C)[C@]1(C)CC2 (stereo partly specified),3
15,C[C@@H]1CC[C@]2(C(=O)O)CC[C@]3(C)C(=CC[C@@H]4[C@@]5(C)C[C@@H](Cl)C(=O)C(C)(C)[C@@H]5CC[C@]43C)C2[C@H]1C (stereo partly specified),55
16,C[C@@H]1CCC2(C(=O)O)CC[C@]3(C)C(=CC[C@@H]4[C@@]5(C)CC[C@@H](O)C(C)(C)[C@@H]5CC[C@]43C)C2[C@H]1C (stereo partly specified),48
17,CC1(C)CC[C@@]23CC[C@]4(C)[C@](OC2=O)(C(=O)C[C@@H]2[C@@]5(C)CCC(=O)C(C)(C)[C@@H]5CC[C@]24C)C3C1 (stereo partly specified),0
18,COC(=O)C12CCC(C)(C)CC1C1=CC[C@@H]3[C@@]4(C)CC=CC(C)(C)[C@@H]4CC[C@@]3(C)[C@]1(C)CC2 (stereo partly specified),3
19,CC1(C)CC[C@@]23CC[C@]4(C)[C@@](OC2O)(C3C1)[C@@H](O)C[C@@H]1[C@@]2(C)CC[C@H](O)C(C)(C)[C@@H]2CC[C@]14C (stereo partly specified),21

row,Structure (SMILES),Inhibition [%]
1,COC(=O)C12CCC(C)(C)CC1[C@H]1C(=O)C[C@@H]3[C@@]4(C)CC[C@H](O)C(C)(C)[C@@H]4CC[C@@]3(C)[C@]1(C)CC2 (stereo partly specified),0
2,C[C@@H]1CCC2(C(=O)O)CC[C@]3(C)C(=CC[C@@H]4[C@@]5(C)CCC(=O)C(C)(C)[C@@H]5CC[C@]43C)C2[C@H]1C (stereo partly specified),22
3,CC1(C)CC[C@]2(C(=O)O)CC[C@]3(C)C(=CC[C@@H]4[C@@]5(C)C=CC(=O)C(C)(C)[C@@H]5CC[C@]43C)C2C1 (stereo partly specified),85
4,CC(=O)OC[C@]12CCC(C)(C)CC1C(=O)[C@](C)([C@]1(C)CC[C@H]3C(C)(C)[C@@H](OC(C)=O)CC[C@]3(C)[C@H]1CC(=O)O)CC2 (stereo partly specified),52
5,CC1(C)CC[C@@]23CC[C@]4(C)[C@@](OC2=O)(C3C1)[C@@H](Br)C[C@@H]1[C@@]2(C)CCC(=O)C(C)(C)[C@@H]2CC[C@]14C (stereo partly specified),4
6,CC(=O)OCC12CCC(C)(C)CC1[C@H]1[C@@H](O)C[C@@H]3[C@@]4(C)CC[C@H](OC(C)=O)C(C)(C)[C@@H]4CC[C@@]3(C)[C@]1(C)CC2 (stereo partly specified),0
7,C=C(C)[C@@H]1CC[C@]2(C)[C@H](CC=C3C4CC(C)(C)CC[C@]4(C(=O)O)CC[C@]32C)[C@@]1(C)CCC=O (stereo partly specified),22
8,C=C(C)[C@@H]1CC[C@]2(C)[C@H](CC=C3C4CC(C)(C)CC[C@]4(C(=O)O)CC[C@]32C)[C@@]1(C)CCC#N (stereo partly specified),33
9,C=C(C)[C@@H]1CC[C@]2(C)[C@H](CC=C3C4[C@@H](C)[C@H](C)CC[C@]4(C(=O)O)CC[C@]32C)[C@@]1(C)CCC(=O)O (stereo partly specified),10
10,C=C(C)[C@@H]1CC[C@]2(C)[C@H](CC=C3C4[C@@H](C)[C@H](C)CC[C@]4(C(=O)O)CC[C@]32C)[C@@]1(C)CCC=O (stereo partly specified),55
11,CC1(C)CCC2(C(=O)O)CC[C@]3(C)C(=CC[C@@H]4[C@@]5(C)CCC(=O)NC(C)(C)[C@@H]5CC[C@]43C)C2C1 (stereo partly specified),51
12,COC(=O)C12CCC(C)(C)CC1[C@H]1C(=O)C[C@@H]3[C@@]4(C)CC[C@H](OC(C)=O)C(C)(C)[C@@H]4CC[C@@]3(C)[C@]1(C)CC2 (stereo partly specified),0
13,COC(=O)C12CC[C@@H](C)[C@H](C)C1C1=CC[C@@H]3[C@@]4(C)CC[C@H](O)C(C)(C)[C@@H]4CC[C@@]3(C)[C@]1(C)CC2 (stereo partly specified),0
14,CC1(C)CCC2(C=O)CC[C@]3(C)C(=CC[C@@H]4[C@@]5(C)CCC(=O)C(C)(C)[C@@H]5CC[C@]43C)C2C1 (stereo partly specified),11
15,CC1(C)CCC2(CO)CC[C@]3(C)[C@@](O)(C2C1)[C@@H](O)C[C@@H]1[C@@]2(C)CC[C@H](O)C(C)(C)[C@@H]2CC[C@]13C (stereo partly specified),22
16,CC(=O)O[C@H]1CC[C@]2(C)[C@H]3CC=C4C5[C@@H](C)[C@H](C)CCC5(C(=O)O)CC[C@@]4(C)[C@]3(C)CC[C@H]2C1(C)C (stereo partly specified),0
17,C[C@@H]1CCC2(C=O)CC[C@]3(C)C(=CC[C@@H]4[C@@]5(C)CCC(=O)C(C)(C)[C@@H]5CC[C@]43C)C2[C@H]1C (stereo partly specified),21
18,CC1(C)CCC2(C(=O)O)CC[C@]3(C)C(=CC[C@@H]4[C@@]5(C)CC=CC(C)(C)[C@@H]5CC[C@]43C)C2C1 (stereo partly specified),0
19,CC(C)C1=C2CC[C@]3(C)[C@H](CC=C4C5CC(C)(C)CCC5(C(=O)O)CC[C@]43C)[C@@]2(C)CC1 (stereo partly specified),0

row,Structure (SMILES),Inhibition [%]
1,CC(=O)OCC12CC[C@@H](C)[C@H](C)C1C1=CC[C@@H]3[C@@]4(C)CC[C@H](OC(C)=O)C(C)(C)[C@@H]4CC[C@@]3(C)[C@]1(C)CC2 (stereo partly specified),0
2,COC(=O)C12CCC(C)(C)CC1[C@H]1[C@H](O)C[C@@H]3[C@@]4(C)CC[C@H](OC(C)=O)C(C)(C)[C@@H]4CC[C@@]3(C)[C@]1(C)CC2 (stereo partly specified),0
3,CC1(C)CCC2(C(=O)O)CC[C@]3(C)C(=C2C1)C=C[C@@H]1[C@@]2(C)CCC(=O)C(C)(C)[C@@H]2CC[C@]13C (stereo partly specified),47
4,COC(=O)C12CCC(C)(C)CC1[C@]13O[C@H]1C[C@@H]1[C@@]4(C)CC[C@H](OC(C)=O)C(C)(C)[C@@H]4CC[C@@]1(C)[C@]3(C)CC2 (stereo partly specified),0
5,C=C(C)[C@@H]1CC[C@]2(C)[C@H](CC=C3C4CC(C)(C)CC[C@]4(C(=O)OC)CC[C@]32C)[C@@]1(C)CCC#N (stereo partly specified),21
6,COC(=O)C12CCC(C)(C)CC1[C@H]1[C@@H](O)C[C@@H]3[C@@]4(C)CC[C@H](OC(C)=O)C(C)(C)[C@@H]4CC[C@@]3(C)[C@]1(C)CC2 (stereo partly specified),0
7,COC(=O)C12CC[C@@H](C)[C@H](C)C1C1=CC[C@@H]3[C@@]4(C)CC[C@H](OC(C)=O)C(C)(C)[C@@H]4CC[C@@]3(C)[C@]1(C)CC2 (stereo partly specified),15
8,COC(=O)C12CCC(C)(C)CC1C1=CC[C@@H]3[C@@]4(C)CC[C@@H](Cl)C(C)(C)[C@@H]4CC[C@@]3(C)[C@]1(C)CC2 (stereo partly specified),2
9,CC1(C)CCC2(C(=O)O)CC[C@]3(C)[C@H](C(=O)C[C@@H]4[C@@]5(C)CCC(=O)C(C)(C)[C@@H]5CC[C@]43C)C2C1 (stereo partly specified),37
10,COC(=O)C12CC[C@@H](C)[C@H](C)C1C1=CC[C@@H]3[C@@]4(C)C=CC(=O)C(C)(C)[C@@H]4CC[C@@]3(C)[C@]1(C)CC2 (stereo partly specified),0
11,CC1(C)CCC2(C(=O)O)CC[C@]3(C)C(=CC[C@@H]4[C@@]5(C)CC[C@@H](O)C(C)(C)[C@@H]5CC[C@]43C)C2C1 (stereo partly specified),18
12,CC1(C)CCC2(C=O)CC[C@]3(C)[C@H](C(=O)C[C@@H]4[C@@]5(C)CCC(=O)C(C)(C)[C@@H]5CC[C@]43C)C2C1 (stereo partly specified),38
13,C[C@@H]1CCC2(CO)CC[C@]3(C)C(=CC[C@@H]4[C@@]5(C)CC[C@H](O)C(C)(C)[C@@H]5CC[C@]43C)C2[C@H]1C (stereo partly specified),8
14,CC(=O)O[C@H]1CC[C@]2(C)[C@H]3CC=C4[C@@H]5CC(C)(C)CC[C@]5(C(=O)O)CC[C@@]4(C)[C@]3(C)CC[C@H]2C1(C)C [ACETYL OLEANOLIC ACID],0
15,C[C@]12CCC(=O)C=C1CC[C@@H]1[C@@H]2[C@@H](O)C[C@@]2(C)[C@H]1CC[C@]2(O)C(=O)CO [HYDROCORTISONE],80
16,COC(=O)[C@]12CCC(C)(C)C[C@H]1C1=CC[C@@H]3[C@@]4(C)CC[C@H](O)C(C)(C)[C@@H]4CC[C@@]3(C)[C@]1(C)CC2 [METHYL OLEANOLATE],0
17,CC1(C)CC[C@]2(C(=O)O)CC[C@]3(C)C(=CC[C@@H]4[C@@]5(C)CC[C@H](O)C(C)(C)[C@@H]5CC[C@]43C)[C@@H]2C1 [OLEANOLIC_ACID],38
18,CC1(C)CC[C@]2(C(=O)O)CC[C@]3(C)C(=CC[C@@H]4[C@@]5(C)CCC(=O)C(C)(C)[C@@H]5CC[C@]43C)[C@@H]2C1 [OLEANONIC ACID],16
